As usually defined, the IC50 is the point on the concentration scale where inhibition reaches its midpoint.

Results on 6 compounds are retold here after paper PMC7795089, “Antimalarials and Phytotoxins from Botryosphaeria dothidea Identified from a Seed of Diseased Torreya taxifolia” (Molecules, 2020).

A short description of data set [1]: In vitro cytotoxicity assay (neutral red), Vero cells. Format: cell-based. Conditions: African green monkey, Vero cells (kidney fibroblasts). Here is the method:
(§1) Cells were seeded to the wells of a 96-well plate at a density of 25,000 cells/well and incubated for 24 h. Samples at different concentrations were added and plates were again incubated for 48 h. The number of viable cells was determined by using neutral red dye and IC50 values were obtained from dose response curves. Doxorubicin was used as a positive control.

Data set [2] can be described thus: In vitro cytotoxicity assay (neutral red), SK-OV-3. Format: cell-based. The note with it: human, SK-OV-3 cells (ovarian carcinoma), 48 h incubation, read-out: Cytotoxic activity IC50, SK-OV-3. Here is the method:
as §1

Data set [3] in a line: In vitro cytotoxicity assay (neutral red), SK-MEL. Format: cell-based. The note with it: human, SK-MEL cells (malignant melanoma), 48 h incubation, read-out: Cytotoxic activity IC50, SK-MEL. As for the experimental part: as §1
Data set [4] in a line: In vitro cytotoxicity assay (neutral red), KB. Format: cell-based. Conditions: human, KB cells (oral epidermal carcinoma), 48 h incubation, read-out: Cytotoxic activity IC50, KB. Here is the method:
as §1

Data set [5] is described as follows: In vitro cytotoxicity assay (neutral red), BT-549. Format: cell-based. Conditions: human, BT-549 cells (breast ductal carcinoma), 48 h incubation, read-out: Cytotoxic activity IC50, BT-549. As for the experimental part:
as §1

The nature of data set [6]: In vitro cytotoxicity assay (neutral red), LLC-PK11. Format: cell-based. Conditions: pig, 48 h incubation, read-out: Cytotoxic activity IC50, LLC-PK11. Here is the method: as §1
Another data set has as its system Bacillus subtilis. Further details: method as in PMID 30935798. Conditions: enantiomers and racemate of compound 2; cited from earlier work.
For data set [7], the system named is human leukemia HL-60 cells. Further details: method as in PMID 30935798. Conditions: enantiomers and racemate of compound 2; comparable to positive control irinotecan; cited from earlier work.
In data set [8] the test system is Plasmodium falciparum W2 (chloroquine-resistant) strain. Description: microbe, parasite or virus in culture. Format: cell-based. The note with it: for IC50: Plasmodium falciparum.
Data set [9] concerns Plasmodium falciparum D6 (chloroquine-sensitive) strain. Description: In vitro antiplasmodial assay, chloroquine-sensitive (D6) clone. Format: cell-based. Conditions: for IC50: Plasmodium falciparum.
Another data set deals with Plasmodium. Further details: method as in PMID 32043422. The note with it: cited from earlier work.
[10] abbreviates: W2, read-out: Chloroquine-Resistant (W2)-Clone IC50.
Where [11] appears, read: D6, read-out: Chloroquine-Sensitive (D6)-Clone IC50.

Like-named read-outs stand apart in the source and are kept apart here.

For the compound `C[C@@H]1CC[C@H]2[C@@H](C)C(=O)O[C@@H]3O[C@@]4(C)CC[C@@H]1[C@]32OO4` [Artemisinin], the IC50 at 48 h in data set [1] was above 4.76 µg/mL.

As to `COc1cccc2c1C(=O)c1c(O)c3c(c(O)c1C2=O)C[C@@](O)(C(=O)CO)C[C@@H]3O[C@H]1C[C@H](N)[C@H](O)[C@H](C)O1` [Doxorubicin], the 50% inhibitory concentration (IC50) at 48 h in [2] turned out to be 1470 nM; in data set [3], 1290 nM; in data set [4], 2120 nM; in data set [5], 1830 nM; in data set [6] it was 1280 nM.

For `CC1=CC(=O)C2(OC2C(=O)CC(C)C)C(=O)N1` (stereo not shown) [Compound 2, flavipucine], the “antibacterial activity against Bacillus subtilis” value in the data set with Bacillus subtilis is on record as “moderate antibacterial activity”. In addition, in data set [7], the “cytotoxic activity against human leukemia HL-60 cells” value is “strong cytotoxic activity”.

In data set [1], `CCN(CC)CCCC(C)Nc1ccnc2cc(Cl)ccc12` (stereo not shown) [Chloroquine] had a 50% inhibitory concentration (IC50) at 48 h above 4.76 µg/mL. The half-maximal inhibitory concentration (IC50) in data set [8] (setting [10]) came to 0.16 µg/mL; in data set [8] (W2, read-out: Chloroquine-Resistant (W2)-Clone IC50 (µM, in parentheses)) it was 0.31 µM; in data set [9] (setting [11]) it was 0.016 µg/mL; in [9] (D6, read-out: Chloroquine-Sensitive (D6)-Clone IC50 (µM, in parentheses)), 0.03 µM.

Take `C\C=C(/C=C(C)/C=C/C=C/C=C(\C)C(=O)[C@H]1C(=O)N[C@]2(O)CCO[C@H]12)C(=O)OC` [lucilactaene]: in the data set on Plasmodium, the antiplasmodial activity result is “potent antiplasmodial activity”.

For `C\C=C(/C=C(C)/C=C/CC/C=C(\C)C(=O)C1=CC(C)(OC)NC1=O)C(=O)OC` (stereo not shown) [Compound 3, dothilactaene A], the IC50 at 48 h in data set [1] was above 4.76 µg/mL. In addition, the “Chloroquine-Resistant (W2)-Clone IC50” value in [8] (P. falciparum W2, concentration causing 50% growth inhibition, highest concentration tested […]) is “inactive”. Besides, the 50% inhibitory concentration (IC50) in data set [8] (setting [10]) and in data set [9] (setting [11]) was above 4.76 µg/mL throughout. Further, the “Chloroquine-Sensitive (D6)-Clone IC50” value in [9] (P. falciparum D6, concentration causing 50% growth inhibition, highest concentration tested […]) was “inactive”.
